# Literature values in patent US20030166007A1, “Chemical proteomics” (MDS Proteomics Inc., priority 2002, published 2003).
# How the values were obtained:
# [1] = target: T1, muscle glycogen phosphorylase b (Homo sapiens, UniProt P11217); details: cited from earlier work
# T1 sequence (P11217 1-842): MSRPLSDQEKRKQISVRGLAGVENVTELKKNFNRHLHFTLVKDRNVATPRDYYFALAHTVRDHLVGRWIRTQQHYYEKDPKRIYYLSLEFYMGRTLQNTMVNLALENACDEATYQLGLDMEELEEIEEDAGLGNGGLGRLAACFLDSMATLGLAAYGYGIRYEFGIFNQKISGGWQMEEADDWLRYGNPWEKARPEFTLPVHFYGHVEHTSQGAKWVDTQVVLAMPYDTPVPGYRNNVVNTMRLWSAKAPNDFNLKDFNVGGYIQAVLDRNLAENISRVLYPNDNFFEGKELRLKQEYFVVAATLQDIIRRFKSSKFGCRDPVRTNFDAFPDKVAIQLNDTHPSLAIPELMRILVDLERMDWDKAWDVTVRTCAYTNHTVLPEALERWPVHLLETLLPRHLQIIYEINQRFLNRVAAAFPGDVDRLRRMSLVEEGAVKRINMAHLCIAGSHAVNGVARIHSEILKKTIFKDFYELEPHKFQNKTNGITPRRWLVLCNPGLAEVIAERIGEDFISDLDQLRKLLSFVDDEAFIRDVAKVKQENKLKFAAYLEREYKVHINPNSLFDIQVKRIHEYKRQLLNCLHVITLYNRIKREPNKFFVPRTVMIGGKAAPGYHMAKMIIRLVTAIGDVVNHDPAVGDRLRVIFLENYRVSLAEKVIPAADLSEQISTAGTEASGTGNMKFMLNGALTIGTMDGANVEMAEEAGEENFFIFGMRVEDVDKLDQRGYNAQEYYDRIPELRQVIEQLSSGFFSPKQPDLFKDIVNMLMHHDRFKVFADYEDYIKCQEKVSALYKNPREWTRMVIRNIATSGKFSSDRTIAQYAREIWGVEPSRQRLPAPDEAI
# [2] = target: Amido phosphoribosyltransferase (Homo sapiens, UniProt Q06203); details: in vitro assays; cited from earlier work
# Sequence of Amido phosphoribosyltransferase (Q06203 12-517, species assumed): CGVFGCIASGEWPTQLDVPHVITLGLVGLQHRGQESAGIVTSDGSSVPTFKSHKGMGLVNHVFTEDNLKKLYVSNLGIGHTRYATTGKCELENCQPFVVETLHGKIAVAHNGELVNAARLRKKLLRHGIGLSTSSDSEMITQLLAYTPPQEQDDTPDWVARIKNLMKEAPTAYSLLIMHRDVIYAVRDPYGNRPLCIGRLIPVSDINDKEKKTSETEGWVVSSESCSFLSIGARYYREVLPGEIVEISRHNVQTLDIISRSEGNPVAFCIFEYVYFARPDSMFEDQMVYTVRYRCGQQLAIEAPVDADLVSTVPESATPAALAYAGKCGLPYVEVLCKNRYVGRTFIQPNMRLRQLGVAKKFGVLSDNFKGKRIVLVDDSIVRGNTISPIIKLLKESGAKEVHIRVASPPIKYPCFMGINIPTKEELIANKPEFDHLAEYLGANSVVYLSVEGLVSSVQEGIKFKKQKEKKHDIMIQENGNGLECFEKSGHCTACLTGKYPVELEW
Structure (SMILES),inhibition of muscle glycogen phosphorylase b [1],inhibition of amido-phosphoribosyltransferase [2]
"CN(Cc1cnc2nc(N)nc(N)c2n1)c1c(Cl)cc(C(=O)N[C@@H](CCC(=O)O)C(=O)O)cc1Cl [3′,5′-dichloroMethotrexate]",reversible inhibitors,
CN(Cc1cnc2nc(N)nc(N)c2n1)c1ccc(C(=O)NC(CCC(=O)O)C(=O)O)cc1Cl (stereo not drawn) [3′-chloroMethotrexate],reversible inhibitors,
CN(Cc1cnc2nc(N)nc(N)c2n1)c1ccc(C(=O)N[C@@H](CCC(=O)N[C@@H](CCC(=O)N[C@@H](CCC(=O)N[C@@H](CCC(=O)N[C@@H](CCC(=O)O)C(=O)O)C(=O)O)C(=O)O)C(=O)O)C(=O)O)cc1 [MTX-Glu5],,inhibited
